Read-outs that look alike come from different tables or passages of the source.
How the values were obtained:
[1] = test system: rats with cognitive impairments induced by amyloid injection (A-beta 25-35 in nucleus basalis magnocellularis); settings: for Number of visits Repeated (to the same arm) / Number of visits Total (visited arms): Y-maze 5 min, next day after last injection, mean±SD, n=8
Protocol: Beta-amyloid 25-35 (A-beta 25-35) was injected in nucleus basalis magnocellularis (NBM) of rats to induce model of cognitive impairments relevant to human Alzheimer's disease as described. Harkany T et al., Behav Brain Res. 1998 90(2):133-45. Harkany T et al., Prog Neuropsychopharmacol Biol Psychiatry. 1999 23(6):963-1008.
A-beta 25-35 was administered bilaterally into NBM of male Wistar rats in dose of 2 μg per each side. Since 16th day of A-beta 25-35 injection, rats were injected i.p. with 1 mg/kg or 50 mg/kg the compound of the formula (I) or saline (control) for 7 days singly a day. The effect of the compound of the formula (I) on cognitive functions was tested in a model of spontaneous alteration in Y-maze at next day from the day of the last injection. It is a suitable model for assessing memory impairments. Total number of visited arms and number of repeated visits to the same arm for 5 min was counted. […] Data are presented in table 2 as the number of visits mean±SD (n=8).

[2] = test system: rats with chronic cerebral ischemia induced by chronic bilateral ligation of common carotid arteries; settings: for Latency, s Post-shock / Latency, s Pre-shock: test on day 8 since ligation, mean±SD, n=8; for Latency, s Post-shock: 24 hours after the shock
Protocol: The effect of the compound of the formula (I) on cognitive function was assessed in rats with chronic cerebral ischemia induced by chronic bilateral ligation of common carotid arteries. The ligation was made in Wistar male rats 3 hours prior the first injection of the compound of the formula (I) or saline. Rats were injected i.p. with 1 mg/kg or 50 mg/kg the compound of the formula (I) or saline (control) for 7 days singly a day. Passive avoidance step-through paradigm test (short-term learning) was made on day 8th since the ligation. The pre-shock and post-shock latency time was used as an index of cognitive impairments. […] Data are presented in table 1 as the latency time mean±SD (n=8).

[3] = 1 mg/kg i.p. once a day for 7 days from day 16 after A-beta 25-35
[4] = 50 mg/kg i.p. once a day for 7 days from day 16 after A-beta 25-35
[5] = 1 mg/kg i.p. once a day for 7 days
[6] = 50 mg/kg i.p. once a day for 7 days

## C[N+](C)(C)CCO.C[N+](C)(C)CCO.O=C([O-])CCC(=O)[O-] [Compound of the formula (I), bis[2-hydroxyethyl-N,N,N-trimethylaminium]butanedioate]
[1]; [3]
  Number of visits Repeated (to the same arm): 0.65 ± 0.24
  Number of visits Total (visited arms): 3.00 ± 0.41
[1]; [4]
  Number of visits Repeated (to the same arm): 0.75 ± 0.29
  Number of visits Total (visited arms): 2.55 ± 0.33
[1]; cognitive function impaired by amyloid toxicity, vs saline control
  Effect on cognitive function (memory) as compared to the control: significantly enhanced cognitive function (memory)
[2]; [5]
  Latency, s Post-shock: 99.3 ± 24.5 s
  Latency, s Pre-shock: 13.5 ± 4.3 s
[2]; [6]
  Latency, s Post-shock: 53.3 ± 16.3 s
  Latency, s Pre-shock: 27.7 ± 13.1 s
[2]; cognitive impairments induced by chronic cerebral ischemia, vs saline control
  Effect on cognitive function as compared to the control: significantly enhanced cognitive function
